Test results as given in ChEMBL document CHEMBL1201862, “PubChem BioAssay data set” (2004).
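Method: 48-hour compound exposure of cells in 96-well plates, five concentrations, linear interpolation of endpoints. GI50: concentration for 50% inhibition of growth.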 The source made the active and inactive calls. Rule as the data show it: active = GI50 up to about 1.1 µM and inactive = higher.

Assays:
Assay in all cases: inhibition of tumour cell growth, NCI panel, 48 h
NCI-H226 = tested on: NCI-H226
KM12 = tested on: KM12
K562 = tested on: K562
SR = tested on: SR
HL-60 = tested on: HL-60
OVCAR-4 = tested on: OVCAR-4
CAKI-1 = tested on: CAKI-1
MCF7 = tested on: MCF7
SN12C = tested on: SN12C
SK-MEL-2 = tested on: SK-MEL-2
DU-145 = tested on: DU-145
EKVX = tested on: EKVX
UO-31 = tested on: UO-31
HCT-15 = tested on: HCT-15
OVCAR-3 = tested on: OVCAR-3
SK-OV-3 = tested on: SK-OV-3
M14 = tested on: M14
MDA-MB-435 = tested on: MDA-MB-435
SF-539 = tested on: SF-539
NCI/ADR-RES = tested on: NCI/ADR-RES

SMILES	GI50 (NCI-H226)	GI50 (KM12)	GI50 (K562)	GI50 (SR)	GI50 (HL-60)	GI50 (OVCAR-4)	GI50 (CAKI-1)	GI50 (MCF7)	GI50 (SN12C)	GI50 (SK-MEL-2)	GI50 (DU-145)	GI50 (EKVX)	GI50 (UO-31)	GI50 (HCT-15)	GI50 (OVCAR-3)	GI50 (SK-OV-3)	GI50 (M14)	GI50 (MDA-MB-435)	GI50 (SF-539)	GI50 (NCI/ADR-RES)
O=C1c2ccccc2-c2nc(-c3ccncc3)cc3c2c1nc1ccccc13	16.6 µM (inactive)	11.8 µM (inactive)	16.1 µM (inactive)	2.38 µM (inactive)	11 µM (inactive)	27.3 µM (inactive)	> 100 µM (inactive)	16.5 µM (inactive)	15.1 µM (inactive)	11.3 µM (inactive)	14.8 µM (inactive)	34.2 µM (inactive)	9.71 µM (inactive)	19 µM	1.52 µM (inactive)	> 100 µM (inactive)	3.21 µM (inactive)	16 µM (inactive)	22 µM (inactive)	> 100 µM (inactive)
CCOC(=O)c1cnccc1CC1(C#N)c2ccccc2C=CN1C(=O)c1ccccc1 (stereo not given)	43.9 µM (inactive)	13.3 µM (inactive)	6.93 µM (inactive)	26.8 µM (inactive)	18.5 µM (inactive)	21.7 µM (inactive)	27.2 µM (inactive)	39.2 µM (inactive)	29 µM (inactive)	21.6 µM (inactive)	35.6 µM (inactive)	36.5 µM (inactive)	27.2 µM (inactive)	31 µM	31.6 µM (inactive)	26.1 µM (inactive)	24.3 µM (inactive)	35.6 µM (inactive)	30.1 µM (inactive)	27.7 µM (inactive)
COc1ccc(C2=C(N)c3ncccc3C2=O)cc1	> 100 µM (inactive)	> 100 µM (inactive)	> 100 µM (inactive)	69.7 µM (inactive)	93.8 µM (inactive)	> 100 µM (inactive)	> 100 µM (inactive)	> 100 µM (inactive)	> 100 µM (inactive)	> 100 µM (inactive)	> 100 µM (inactive)	45 µM (inactive)	> 100 µM (inactive)	> 100 µM	91.2 µM (inactive)	> 100 µM (inactive)	> 100 µM (inactive)	> 100 µM (inactive)	> 100 µM (inactive)	> 100 µM (inactive)
CSc1ncc2c(n1)-c1ccccc1OC2N1CCOCC1 (stereo not given)	85.7 µM (inactive)	53.3 µM (inactive)	56.1 µM (inactive)	64.9 µM (inactive)	27.3 µM (inactive)	21.7 µM (inactive)	50.8 µM (inactive)	55.8 µM (inactive)	50 µM (inactive)	> 100 µM (inactive)	> 100 µM (inactive)	76 µM (inactive)	42.4 µM (inactive)	53.7 µM	56.2 µM (inactive)	> 100 µM (inactive)	> 100 µM (inactive)	> 100 µM (inactive)	> 100 µM (inactive)	57.1 µM (inactive)
Cc1c2c(C#N)nccc2c(C)c2c1c1ccccc1n2Cc1ccccc1	> 100 µM (inactive)	> 100 µM (inactive)	> 100 µM (inactive)	36.1 µM (inactive)	> 100 µM (inactive)	> 100 µM (inactive)	> 100 µM (inactive)	6.49 µM (inactive)	> 100 µM (inactive)	> 100 µM (inactive)	> 100 µM (inactive)	3.79 µM (inactive)	> 100 µM (inactive)	> 100 µM	> 100 µM (inactive)	> 100 µM (inactive)	> 100 µM (inactive)	> 100 µM (inactive)	> 100 µM (inactive)	> 100 µM (inactive)
Cc1c(-c2ccccc2)c(C#N)c2nnn(-c3ccc(Cl)cc3)c(=O)n12	66.7 µM (inactive)	24.2 µM (inactive)	0.668 µM (active)	8.53 µM (inactive)	4.43 µM (inactive)	25.8 µM (inactive)	13.3 µM (inactive)	7.59 µM (inactive)	35.2 µM (inactive)	26.8 µM (inactive)	38.5 µM (inactive)	50.9 µM (inactive)	22.5 µM (inactive)	10.1 µM	16.4 µM (inactive)	89.7 µM (inactive)	5.08 µM (inactive)	31 µM (inactive)	20.7 µM (inactive)	17.6 µM (inactive)
CCOC1NC(=O)Oc2ccccc21 (stereo not given)	> 100 µM (inactive)	> 100 µM (inactive)	> 100 µM (inactive)	> 100 µM (inactive)	> 100 µM (inactive)	> 100 µM (inactive)	> 100 µM (inactive)	> 100 µM (inactive)	> 100 µM (inactive)	> 100 µM (inactive)	> 100 µM (inactive)	> 100 µM (inactive)	> 100 µM (inactive)	> 100 µM	68.2 µM (inactive)	> 100 µM (inactive)	> 100 µM (inactive)	> 100 µM (inactive)	> 100 µM (inactive)	> 100 µM (inactive)
Cc1ccc2nc(C(=O)O)c(=O)[nH]c2c1	> 100 µM (inactive)	> 100 µM (inactive)	> 100 µM (inactive)	> 100 µM (inactive)	> 100 µM (inactive)	> 100 µM (inactive)	> 100 µM (inactive)	> 100 µM (inactive)	> 100 µM (inactive)	> 100 µM (inactive)	> 100 µM (inactive)	> 100 µM (inactive)	> 100 µM (inactive)	> 100 µM	> 100 µM (inactive)	> 100 µM (inactive)	> 100 µM (inactive)	> 100 µM (inactive)	> 100 µM (inactive)	> 100 µM (inactive)
C=C1c2nc3ccccc3n2C=C(c2ccc(Cl)cc2)N1c1ccccc1	0.031 µM (active)	12.3 µM (inactive)	40.6 µM (inactive)	5.94 µM (inactive)	41.1 µM (inactive)	10.5 µM (inactive)	15.7 µM (inactive)	13 µM (inactive)	39.9 µM (inactive)	22.5 µM (inactive)	32.5 µM (inactive)	14.8 µM (inactive)	13.4 µM (inactive)	12.1 µM	17.2 µM (inactive)	16.9 µM (inactive)	16.3 µM (inactive)	21 µM (inactive)	13.2 µM (inactive)	12.2 µM (inactive)
O=c1[nH]c(=S)[nH]c(-c2ccccc2)c1Cc1c(O)ccc2ccccc12 [CAMBINOL]	29.6 µM (inactive)	30.6 µM (inactive)	31.3 µM (inactive)	34.8 µM (inactive)	20.6 µM (inactive)	39.7 µM (inactive)	25.5 µM (inactive)	33 µM (inactive)	32.7 µM (inactive)	20.4 µM (inactive)	41.9 µM (inactive)	26.1 µM (inactive)	29.6 µM (inactive)	34.4 µM	54.3 µM (inactive)	46.1 µM (inactive)	27.9 µM (inactive)	31 µM (inactive)	25.6 µM (inactive)	33.5 µM (inactive)
CC(=O)N1CCN(C23OC4(N5CCN(C(C)=O)CC5)C5C6CC(C7C6C4C72)C53)CC1 (stereo not given)	> 100 µM (inactive)	> 100 µM (inactive)	> 100 µM (inactive)	> 100 µM (inactive)	> 100 µM (inactive)	> 100 µM (inactive)	> 100 µM (inactive)	> 100 µM (inactive)	> 100 µM (inactive)	> 100 µM (inactive)	> 100 µM (inactive)	> 100 µM (inactive)	> 100 µM (inactive)	> 100 µM	> 100 µM (inactive)	> 100 µM (inactive)	> 100 µM (inactive)	> 100 µM (inactive)	> 100 µM (inactive)	> 100 µM (inactive)
COc1cc(-c2oc3c(OC)c(O)cc(O)c3c(=O)c2OC)ccc1O	12.9 µM (inactive)	10 µM (inactive)	5.12 µM (inactive)	3.24 µM (inactive)	3.56 µM (inactive)	8.41 µM (inactive)	3.13 µM (inactive)	19.7 µM (inactive)	13.1 µM (inactive)	2.75 µM (inactive)	7.06 µM (inactive)	21.8 µM (inactive)	3.08 µM (inactive)	3.67 µM	2.68 µM (inactive)	1.55 µM (inactive)	4.12 µM (inactive)	7.35 µM (inactive)	5.47 µM (inactive)	10.8 µM (inactive)
Cc1c(-c2ccccc2)c(-c2ccc(OCCN(C)C)cc2)n2ccccc12	15.2 µM (inactive)	3.82 µM (inactive)	1.84 µM (inactive)	2.43 µM (inactive)	3.67 µM (inactive)	12.4 µM (inactive)	11.2 µM (inactive)	7.62 µM (inactive)	12.1 µM (inactive)	7.74 µM (inactive)	13.3 µM (inactive)	15.3 µM (inactive)	9.48 µM (inactive)	2.55 µM	12 µM (inactive)	15.8 µM (inactive)	1.79 µM (inactive)	3.79 µM (inactive)	10.5 µM (inactive)	13.2 µM (inactive)
